Results from DBAASP.
≈ marks a conversion by molar mass, not a printed value. One block for each compound: values may come before it.

Tests used:
Test in all cases: ≥ marks a high value that may be exact or a test limit, other limits are often not marked, values filed in µg/mL are converted to µM
[1] = tested on: Proteus vulgaris KCTC 2433
[2] = tested on: Saccharomyces cerevisiae KCTC 7296
[3] = tested on: Salmonella typhimurium KCTC 1926
[4] = tested on: Candida albicans TIMM 1768
[5] = tested on: Staphylococcus aureus KCTC 1621
[6] = tested on: Bacillus subtilis KCTC 1918
[7] = tested on: Trichosporon beigelii KCTC 7707
Staphylococcus aureus = tested on: Staphylococcus aureus
Staphylococcus aureus 4 = tested on: Staphylococcus aureus 4
[8] = tested on: Candida parapsilosis ATCC 22019
Escherichia coli O157 = tested on: Escherichia coli O157
Pseudomonas aeruginosa 1 = tested on: Pseudomonas aeruginosa 1
Staphylococcus aureus 1 = tested on: Staphylococcus aureus 1
[9] = tested on: Candida albicans ATCC 90028
[10] = tested on: Malassezia furfur KCTC 7744
Enterococcus faecium = tested on: Enterococcus faecium
Pseudomonas aeruginosa = tested on: Pseudomonas aeruginosa
[11] = tested on: Batrachochytrium dendrobatidis JEL-197
[12] = tested on: Escherichia coli ATCC 25726
[13] = tested on: Staphylococcus aureus ATCC 25923
[14] = tested on: Bacillus subtilis ATCC 6633
[15] = tested on: Escherichia coli ATCC 25922
[16] = tested on: Candida albicans ATCC 20032
[17] = tested on: Staphylococcus epidermidis ATCC 14990
[18] = tested on: Staphylococcus aureus ATCC 12600
[19] = tested on: Streptococcus salivarius ATCC 13419
Bacillus megaterium Bm11 = tested on: Bacillus megaterium Bm11
[20] = tested on: Staphylococcus aureus Cowan 1
[21] = tested on: Staphylococcus epidermidis ATCC 12228
[22] = tested on: Candida albicans ATCC 10231
[23] = tested on: Pseudomonas syringae pv. tabaci 1918NCPPB
[24] = tested on: Pseudomonas aeruginosa ATCC 15692
Saccharomyces cerevisiae = tested on: Saccharomyces cerevisiae
[25] = tested on: Yersinia pseudotuberculosis YPIII
[26] = tested on: Enterococcus faecalis ATCC 29212
[27] = tested on: Streptococcus pyogenes ATCC 21547
[28] = tested on: Schizosaccharomyces pombe
Staphylococcus capitis 1 = tested on: Staphylococcus capitis 1
Escherichia coli D21 = tested on: Escherichia coli D21
[29] = tested on: Pseudomonas aeruginosa ATCC 27853
Acinetobacter junii RT-4 = tested on: Acinetobacter junii RT-4
[30] = tested on: Acinetobacter baumannii ATCC 19606
[31] = tested on: Salmonella enterica subsp. enterica serovar Typhi
Enterobacter cloacae = tested on: Enterobacter cloacae
Escherichia coli = tested on: Escherichia coli
Bacillus subtilis = tested on: Bacillus subtilis

SMILES: CC[C@H](C)[C@H](NC(=O)CNC(=O)[C@H](CC(C)C)NC(=O)[C@H](CCCN=C(N)N)NC(=O)[C@H](CCCCN)NC(=O)[C@H](Cc1ccccc1)NC(=O)[C@@H](NC(=O)[C@H](CCCCN)NC(=O)[C@H](CCCCN)NC(=O)[C@H](C)N)C(C)C)C(=O)NCC(=O)N[C@@H](C)C(=O)N[C@H](C(=O)N[C@@H](CC(C)C)C(=O)N[C@@H](CCCCN)C(=O)N[C@H](C(=O)N[C@@H](CC(C)C)C(=O)N[C@H](C(=O)N[C@@H](Cc1c[nH]c2ccccc12)C(=O)NCC(=O)O)[C@@H](C)O)C(C)C)C(C)C [AKKVFKRLGIGAVLKVLTWG]
MIC [1]: 0.78 µM (≈ 1.7 µg/mL) | MIC [2]: 17.7 µM (≈ 38.6 µg/mL) | MIC [3]: 0.39 µM (≈ 0.852 µg/mL) | MIC [4]: ≥ 50 µM | MIC [5]: 0.78 µM (≈ 1.7 µg/mL) | MIC [6]: 0.78 µM (≈ 1.7 µg/mL) | MIC [7]: ≥ 35.4 µM

SMILES: CC[C@H](C)[C@H](NC(=O)[C@H](CC(C)C)NC(=O)[C@H](CCCN=C(N)N)NC(=O)[C@@H](NC(=O)[C@H](C)NC(=O)[C@H](CCCCN)NC(=O)[C@H](CC(C)C)NC(=O)[C@H](CC(C)C)NC(=O)[C@@H](N)CCC(=O)O)C(C)C)C(=O)N[C@@H](CCCCN)C(=O)O [ELLKAVRLIK]
MIC (Staphylococcus aureus): 20 µM (≈ 23.7 µg/mL) | MIC (Staphylococcus aureus 4): 10 µM (≈ 11.8 µg/mL) | MIC [8]: 10 µM (≈ 11.8 µg/mL) | MIC (Escherichia coli O157): 10 µM (≈ 11.8 µg/mL) | MIC (Pseudomonas aeruginosa 1): 10 µM (≈ 11.8 µg/mL) | MIC (Staphylococcus aureus 1): 5 µM (≈ 5.91 µg/mL) | MIC [9]: 10 µM (≈ 11.8 µg/mL) | MIC [10]: 20 µM (≈ 23.7 µg/mL) | MIC (Enterococcus faecium): 10 µM (≈ 11.8 µg/mL) | MIC (Pseudomonas aeruginosa): 5 µM (≈ 5.91 µg/mL) | MIC [7]: 28.3 µM (≈ 33.4 µg/mL)

SMILES: CSCC[C@H](NC(=O)[C@H](C)NC(=O)[C@H](CC(C)C)NC(=O)[C@@H]1CCCN1C(=O)[C@H](CC(C)C)NC(=O)[C@@H](N)Cc1ccccc1)C(=O)N[C@@H](C)C(=O)N[C@@H](CC(C)C)C(=O)NCC(=O)N[C@@H](CCCCN)C(=O)N[C@@H](CC(C)C)C(=O)N[C@@H](CC(C)C)C(N)=O [FLPLAMALGKLL]
MIC [11]: ≥ 100 µM | MIC [12]: ≥ 160 µM | MIC [13]: 40 µM (≈ 51.4 µg/mL)

SMILES: CC[C@H](C)[C@H](NC(=O)CN)C(=O)NCC(=O)N[C@H](C(=O)N[C@@H](CCCCN)C(=O)N[C@H](C(=O)N[C@@H](CC(C)C)C(=O)NCC(=O)NCC(=O)N[C@H](C(=O)N[C@@H](CCCCN)C(=O)N[C@@H](C)C(=O)N[C@@H](C)C(=O)N[C@@H](CC(C)C)C(=O)N[C@@H](CCCCN)C(=O)NCC(=O)N[C@@H](C)C(=O)N[C@@H](CC(C)C)C(=O)N[C@@H](CCCCN)C(=O)N[C@@H](CCC(=O)O)C(=O)N[C@@H](CC(C)C)C(=O)N[C@@H](C)C(=O)N[C@@H](CO)C(=O)N[C@H](C(=O)N[C@@H](Cc1ccc(O)cc1)C(=O)N[C@H](C(=O)N[C@@H](CC(N)=O)C(N)=O)C(C)C)[C@@H](C)O)C(C)C)[C@@H](C)CC)[C@@H](C)O [GIGTKILGGVKAALKGALKELASTYVN]
MIC [14]: 28.1 µM (≈ 75 µg/mL) | MIC [15]: 7.03 µM (≈ 18.8 µg/mL) | MIC [16]: ≥ 37.4 µM | MIC [13]: 3.52 µM (≈ 9.4 µg/mL)

Other lines, results leading:

MIC [17]: ≥ 80 µM | MIC [15]: 3.4 µM (≈ 11.6 µg/mL) | MIC [18]: ≥ 80 µM | MIC [19]: 5.9 µM (≈ 20.1 µg/mL)
SMILES: CC(C)C[C@@H]1NC(=O)[C@H](C(C)C)NC(=O)[C@H](Cc2ccccc2)NC(=O)[C@@H]2CSSC[C@@H]3NC(=O)[C@H](Cc4ccc(O)cc4)NC(=O)[C@@H]4CSSC[C@H](NC(=O)[C@H](CCCN=C(N)N)NC(=O)[C@H]([C@@H](C)O)NC(=O)CNC(=O)[C@H](CC(N)=O)NC(=O)[C@H](CCCN=C(N)N)NC(=O)[C@H](Cc5ccc(O)cc5)NC(=O)[C@H](CSSC[C@H](NC(=O)[C@@H]5CCCN5C1=O)C(=O)N[C@@H](Cc1c[nH]c5ccccc15)C(=O)N[C@@H](CO)C(=O)N[C@@H](C)C(=O)N[C@@H](CCCCN)C(=O)N[C@@H](Cc1ccccc1)C(=O)NCC(=O)N4)NC(=O)[C@H](Cc1ccccc1)NC(=O)CNC(=O)[C@H](CCCCN)NC(=O)[C@H](CCC(N)=O)NC3=O)C(=O)NCC(=O)N[C@@H](CCC(=O)O)C(=O)N[C@@H]([C@@H](C)O)C(=O)N2 [GTRCGETCFVLPCWSAKFGCYCQKGFCYRN]

MIC (Bacillus megaterium Bm11): 3 µM (≈ 4.88 µg/mL) | MIC [15]: > 48 µM | MIC [20]: 6 µM (≈ 9.75 µg/mL) | MIC [21]: 3 µM (≈ 4.88 µg/mL) | MIC [22]: 12 µM (≈ 19.5 µg/mL) | MIC [23]: 12 µM (≈ 19.5 µg/mL) | MIC [24]: ≥ 48 µM | MIC [13]: 6 µM (≈ 9.75 µg/mL) | MIC (Saccharomyces cerevisiae): 12 µM (≈ 19.5 µg/mL) | MIC [25]: 6 µM (≈ 9.75 µg/mL) | MIC [26]: 12 µM (≈ 19.5 µg/mL) | MIC [27]: 6 µM (≈ 9.75 µg/mL) | MIC [28]: 6 µM (≈ 9.75 µg/mL) | MIC (Staphylococcus capitis 1): 6 µM (≈ 9.75 µg/mL) | MIC (Escherichia coli D21): ≥ 48 µM | MIC [29]: > 48 µM | MIC (Acinetobacter junii RT-4): 6 µM (≈ 9.75 µg/mL) | MIC [30]: 6 µM (≈ 9.75 µg/mL)
SMILES: CC(C)C[C@H](NC(=O)[C@H](Cc1c[nH]c2ccccc12)NC(=O)[C@H](CCCN=C(N)N)NC(=O)CNC(=O)[C@H](CC(C)C)NC(=O)[C@H](CC(C)C)NC(=O)[C@H](CCCCN)NC(=O)[C@H](CO)NC(=O)[C@H](CC(C)C)NC(=O)[C@H](Cc1c[nH]c2ccccc12)NC(=O)[C@H](CCC(N)=O)NC(=O)[C@H](CC(C)C)NC(=O)[C@@H](N)CC(C)C)C(N)=O [LLQWLSKLLGRWL]

MIC (Staphylococcus aureus): 31.2 µM (≈ 64 µg/mL) | MIC [15]: 7.79 µM (≈ 16 µg/mL) | MIC [31]: 1.95 µM (≈ 4 µg/mL) | MIC [13]: 1.95 µM (≈ 4 µg/mL) | MIC [9]: ≥ 62.4 µM | MIC (Enterobacter cloacae): 15.6 µM (≈ 32 µg/mL) | MIC (Escherichia coli): 15.6 µM (≈ 32 µg/mL) | MIC [29]: 31.2 µM (≈ 64 µg/mL) | MIC (Pseudomonas aeruginosa): 7.79 µM (≈ 16 µg/mL) | MIC (Bacillus subtilis): 31.2 µM (≈ 64 µg/mL)
SMILES: CC(C)C[C@H](NC(=O)[C@H](CCCCN)NC(=O)[C@H](CCCN=C(N)N)NC(=O)[C@H](Cc1ccccc1)NC(=O)[C@H](Cc1ccccc1)NC(=O)[C@H](CCCCN)NC(=O)[C@H](CCCCN)NC(=O)[C@H](Cc1ccccc1)NC(=O)[C@H](CCCN=C(N)N)NC(=O)[C@H](CCCCN)NC(=O)[C@@H](NC(=O)[C@@H](N)CC(C)C)C(C)C)C(=O)N[C@@H](CCCCN)C(=O)N[C@@H](CCCCN)C(=O)N[C@@H](CO)C(=O)N[C@H](C(N)=O)C(C)C [LVKRFKKFFRKLKKSV]
